# Results from patent US5852033A, “Methods of treatment using lamellarin-class alkaloids” (Pharma Mar, s.a., priority 1995, dated 1998).
# Read-outs that look alike come from different tables or passages of the source.
# Key:
# P-388 = test: LAMELLARINS TOXICITY TO SENSITIVE TUMOR CELL LINE P-388 (MTT); assay type: cell-based; conditions: Mus musculus, P388, 72 h, read-out: ACTIVITY: IC50
# Procedure: (§1) Sensitive and MDR cells were maintained, in logarithmic phase of growth, in Eagle's Minimum Essential Medium, with Earle's Balanced Salts, with non-essential amino acids, with 2.0 mM L-glutamine, without sodium bicarbonate (EMEM/neaa), supplemented with 5% Fetal Calf Serum (FCS), 10^-2 M sodium bicarbonate and 0.1 g/l penicillin G+0.1 g/l streptomycin sulfate.
# (§2) In Vitro cell cytotoxicity was determined using the 3-[4,5-dimethylthiazol-2-yl]-2,5-dipheniltetrazolium bromide (MTT), from Sigma Ref:M-2128, for quantitative measurement of cell growth and viability. See, T. Mosmann, "Rapid Colorimetric Assay for Cellular Growth and Survival: Application to Proliferation and Cytotoxicity Assays," Journal of Immunological Methods, 65: 55-63 (1983).
# (§3) The tumor cell lines employed have been: P-388 (ATCC CCL 46), suspension culture of a lymphoid neoplasm from a DBA/2 mouse and its corresponding MDR cell line P-388/SCHABEL; CHOB1 (ATCC CCL 16), monolayer culture of chinese hamster ovary and its corresponding MDR cell line CHOC5. See, Rauscher Ill, et al., "Characterization of Auromycin-Resistant Hamster Cell Mutants that Display a Multidrug Resistance Phenotype," Molecular Pharmacology, 38: 198-206 (1990).
# (§4) This form of assay employs 96-well cell culture plates […]. Cells were seeded into wells at 1×10^3 cells per well in 100 μl aliquots of EMEM 5% FCS containing different concentrations of the corresponding lamellarins and other compounds (standards) to be tested. Two separate sets of cultures without drugs were seeded, one as control of growth to ensure that cells remained in exponential phase of growth, and another without cells as control of medium. All determinations were carried out in duplicate.
# (§5) After three days of incubation at 37° C., 10% CO2 in a 98% humid atmosphere, 150 μg of MTT is added to each well in 50 μl aliquots of assay medium. Plates were incubated for an additional 4 hours and 100 μl aliquots of isopropanol were added to each well. The broad absorption spectrum for the isopropanol solution of this crystal is optimal at 570 nm. Optical density values were obtained with the help of a Dynatech microplate reader and the results of the assay were used to generate graphics from which IC50 was calculated; i.e., wherein the IC50 is the test concentration which produces 50% cell growth inhibition.
# P-388/SCHABEL (MDR) = test: LAMELLARINS TOXICITY TO RESISTANT (MDR) TUMOR CELL LINE P-388/SCHABEL (MTT); assay type: cell-based; conditions: Mus musculus, P388, 72 h, read-out: ACTIVITY: IC50
# Procedure: as §1, §2, §3, §4, §5
# CHOB1 = test: LAMELLARINS TOXICITY TO SENSITIVE TUMOR CELL LINE CHOB1 (MTT); assay type: cell-based, chinese hamster; conditions: Cricetulus griseus, 72 h, read-out: ACTIVITY: IC50
# Procedure: as §1, §2, §3, §4, §5
# CHOC5 (MDR) = test: LAMELLARINS TOXICITY TO RESISTANT (MDR) TUMOR CELL LINE CHOC5 (MTT); assay type: cell-based, chinese hamster; conditions: Cricetulus griseus, 72 h, read-out: ACTIVITY: IC50
# Procedure: as §1, §2, §3, §4, §5
# HT-29 = test: Lamellarin in vitro activity vs. tumor cell lines, HT-29; assay type: cell-based; conditions: Homo sapiens; HT-29, Table IV
# MLR = test: Immunomodulatory activity (LcV:MLR); assay type: cell-based; conditions: in words
# [1] = test system: P388 Lymphocytic Leukemia; test: In vivo anti-tumor activity vs P388 lymphocytic leukemia; parameters: species or system mouse; conditions: total 75.000 mg/kg, QD 1-5, ip
# P388 = test: Lamellarin in vitro activity vs. tumor cell lines, P388; conditions: Mus musculus
# A549 = test: Lamellarin in vitro activity vs. tumor cell lines, A549; conditions: for IC50: Homo sapiens; for in vitro antitumor activities: compared with lamellarins I, K and L, particularly A549 cells
# MEL-28 = test: Lamellarin in vitro activity vs. tumor cell lines, MEL-28; assay type: cell-based; conditions: Homo sapiens, SK-MEL-28; MEL-28, Table IV
# [2] = P-388, sensitive, MTT, three days
# [3] = P-388/SCHABEL (MDR), MTT, three days
# [4] = CHOB1, sensitive, MTT, three days
# [5] = P388, read-out: cytotoxicity IC50
# [6] = A549, read-out: cytotoxicity IC50
SMILES,IC50 (P-388; [2]) [µg/mL],IC50 (P-388/SCHABEL (MDR); [3]) [µg/mL],IC50 (CHOB1; [4]) [µg/mL],"IC50 (CHOC5 (MDR); CHOC5 (MDR), MTT, three days) [µg/mL]",IC50 (HT-29) [µg/mL],IC50 (P388; P388) [µg/mL],IC50 (A549; A549) [µg/mL],further results
COc1cc(-c2c3n(c4c(=O)oc5cc(OC(C)=O)c(OC)cc5c24)CCc2c-3cc(OC)c(OC)c2OC(C)=O)ccc1OC(C)=O [Lamellarin K-triacetate],0.06,0.1,0.1,0.1,,,,
COc1cc(-c2c3n(c4c(=O)oc5cc(O)c(OC)cc5c24)CCc2c-3cc(OC)c(OC)c2O)ccc1O [Lamellarin K],0.1,0.1,0.1,0.4,1,0.25,0.25,immunomodulatory activity (MLR): moderate immunomodulatory activity; % T/C [1]: > 135.0%; Body Weight Change Day 5 [1]: 1.2 gm; Body Weight Day 5 [1]: 20.7 ± 0.5 gm; Mean Survival Time [1]: 28.3 ± 5.9; Body Weight Day 0 ([1]; baseline): 19.5 ± 0.5 gm; IC50 (P388; [5]): ~0.25 µg/mL; IC50 (A549; [6]): ~0.25 µg/mL
COc1ccc(-c2c3n(c4c(=O)oc5cc(OC(C)=O)c(OC)cc5c24)CCc2cc(OC(C)=O)c(OC)cc2-3)cc1OC(C)=O [Lamellarin L-triacetate],1.5,1.5,1.5,1.5,,,,
COc1ccc(-c2c3n(c4c(=O)oc5cc(O)c(OC)cc5c24)CCc2cc(O)c(OC)cc2-3)cc1O [Lamellarin L],0.6,0.7,0.4,0.6,2,0.25,0.25,immunomodulatory activity (MLR): moderate immunomodulatory activity; IC50 (P388; [5]): ~0.25 µg/mL; IC50 (A549; [6]): ~0.25 µg/mL
COc1cc(-c2c3c4cc(OC)c(OC(C)=O)cc4oc(=O)c3n3ccc4c(OC(C)=O)c(OC)c(OC)cc4c23)ccc1OC(C)=O [Lamellarin M-triacetate],0.6,0.7,0.5,2,,,,
COc1cc(-c2c3c4cc(OC)c(O)cc4oc(=O)c3n3ccc4c(O)c(OC)c(OC)cc4c23)ccc1O [Lamellarin M],,,,,0.5,0.05,0.025,"IC50 (P-388): 0.08 µg/mL; IC50 (P-388/SCHABEL (MDR)): 0.09 µg/mL; IC50 (CHOB1): 0.04 µg/mL; IC50 (CHOC5 (MDR)): 0.09 µg/mL; IC50 (MEL-28): 0.5 µg/mL; in vitro antitumor activities (A549): significantly better, particularly against A549 cells, than the lamellarins I, K and L"
COc1ccc(-c2c3c4cc(OC)c(OC(C)=O)cc4oc(=O)c3n3ccc4cc(OC(C)=O)c(OC)cc4c23)cc1OC(C)=O [Lamellarin N-triacetate],0.09,0.2,0.06,0.1,5,0.1,0.012,"IC50 (MEL-28): 5 µg/mL; in vitro antitumor activities (A549): significantly better, particularly against A549 cells, than the lamellarins I, K and L"
"C/C=C/C[C@@H](C)C(=O)[C@H]1C(=O)N[C@@H](C(C)C)C(=O)N(C)CC(=O)N(C)[C@@H](CC(C)C)C(=O)N[C@@H](C(C)C)C(=O)N(C)[C@@H](CC(C)C)C(=O)N[C@@H](C)C(=O)N[C@H](C)C(=O)N(C)[C@@H](CC(C)C)C(=O)N(C)[C@@H](CC(C)C)C(=O)N(C)[C@@H](C(C)C)C(=O)N1C [PSC833, reference compound]",0.02,0.05,0.04,0.1,,,,
"COc1ccc(CCN(C)CCCC(C#N)(c2ccc(OC)c(OC)c2)C(C)C)cc1OC (stereo not drawn) [Verapamil, reference compound]",10,10,9,4,,,,
